{
  "source": "patent US20210386756A1",
  "about": "“IMPROVEMENTS FOR PERFORMING AND FACILITATING THE RECOVERY AFTER HEMATOPOIETIC STEM CELL TRANSPLANTATION” (Centro de Investigaciones Energéticas, Medioambientales y …, priority 2018, published 2021)",
  "key": {"human cord blood CD34+": {"test_system": "human cord blood CD34+", "assay": "Human engraftment in female NSG mice transplanted with a limited CD34+ cell dose (5×10^3)", "format": "in vivo, mouse", "conditions": "low dose 5×10^3 hCD34+, mean +/− SEM", "excerpt": "FIG. 7A indicates human hematopoietic reconstitution after four months. […] However, in spite of this presence of endogenous estrogens, the human engraftment in female recipients was increased after E2 and more importantly after E4 treatment. FIG. 7B relates the presence of primitive hematopoietic progenitors was higher in the female mice treated with estrogens, which indicated the quality of the reconstitution. (Kruskal-Wallis test; P<0.05, 4 mice per group). […] Three-four months later, the animals were sacrificed and the human hematopoietic engraftment was analyzed by FACS. Human hematopoietic population was identified as the cells positive for hCD45-APC-Cy7 (Biolegend) and negative for mouse CD45.1-PE (Biolegend). To assess whether estrogen can improve hematopoietic reconstitution in female recipients, female NSG were irradiated and transplanted by a low doses of human cord blood CD34^+ (5×10^3 hCD34^+). The human engraftment was analyzed as described in Example 1. […] However, in spite of this presence of endogenous estrogens, the human engraftment in female recipients was increased after E2 and more importantly after E4 treatment."}, "[1]": {"test_system": "hCD34+ hematopoietic progenitors", "assay": "In vitro toxicity of natural estrogens for hematopoietic progenitors (hCD34+ culture, FACS subsets)", "format": "cell-based, human", "conditions": "for % CD34+/CD38− / % HSC / % MLP / % MPP: four days culture", "procedure": "FIG. 9 relates the effect of different concentration of E1, E2, E3 and E4 in human hematopoietic progenitors. Human hematopoietic progenitors were culture in phenol red free media supplemented with 100 ng/mL SCF, 100 ng/ml FLT3L and 100 ng/ml TPO and different concentration of E1, E2, E3 and E4 (from 10 nM to 500 μM). FIG. 9A represents the fold increase of the number of hematopoietic cells after four days in culture. FIG. 9B indicates the total number of primitive hematopoietic progenitors (CD34^+/CD38^−) present in the culture, extrapolated from number of cells and the frequency of this population analyzed by FACS. […] Grey dashed lines point the value of control group, and red dashed lines indicate the initial values at day 0. (Kruskal-Wallis test; P<0.05, data from four independent experiments).\nTo assess the toxicity of the natural estrogens (E1, E2, E3 and E4) for hematopoietic progenitors, in vitro studies were performed. 5×10^4 hCD34^+ were cultured in a phenol red-free media, X-Vivo 20 (Lonza), in presence of 100 ng/ml SCF, 100 ng/ml FLT3L, 100 ng/ml TPO, 0.5% PS, 1% Glutamax (Thermofisher) and different concentrations of E1, E2, E3 or E4 (from 10 nM to 500 μM). Cell proliferation and immunophenotype of different hematopoietic subsets (CD34^+/CD38^−, HSC [CD34^+/CD38^−/CD45RA^−/CD90^+], Multipotent Progenitors [MPP, CD34^+/CD38^−/CD45RA^−/CD90^−], Multipotent Lymphoid Progenitors [MLP, CD34^+/CD38^−/CD45RA^+] were evaluated at day 0 and four days after culture."}, "ESRα": {"target": "T1, ESRα (Homo sapiens, UniProt P03372)", "T1 sequence (P03372 1-595)": "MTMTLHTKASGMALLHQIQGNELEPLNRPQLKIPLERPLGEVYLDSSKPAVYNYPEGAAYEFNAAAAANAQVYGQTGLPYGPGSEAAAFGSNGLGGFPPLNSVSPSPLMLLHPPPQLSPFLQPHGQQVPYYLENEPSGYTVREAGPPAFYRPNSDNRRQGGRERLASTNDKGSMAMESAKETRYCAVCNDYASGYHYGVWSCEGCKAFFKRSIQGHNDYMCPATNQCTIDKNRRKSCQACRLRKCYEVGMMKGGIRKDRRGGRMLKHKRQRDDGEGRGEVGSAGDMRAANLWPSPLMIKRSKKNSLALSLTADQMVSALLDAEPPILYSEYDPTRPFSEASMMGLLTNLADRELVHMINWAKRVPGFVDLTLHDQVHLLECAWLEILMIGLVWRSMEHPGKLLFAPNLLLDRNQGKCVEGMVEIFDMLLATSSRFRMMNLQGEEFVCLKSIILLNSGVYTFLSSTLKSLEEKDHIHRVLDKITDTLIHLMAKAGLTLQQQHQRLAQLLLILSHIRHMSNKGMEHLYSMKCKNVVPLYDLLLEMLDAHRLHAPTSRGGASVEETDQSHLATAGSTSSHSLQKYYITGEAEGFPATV", "conditions": "cited from earlier work"}, "[2]": {"target": "T2, sex hormone-binding globulin (SHBG) (Homo sapiens, UniProt P04278)", "T2 sequence (P04278 30-402)": "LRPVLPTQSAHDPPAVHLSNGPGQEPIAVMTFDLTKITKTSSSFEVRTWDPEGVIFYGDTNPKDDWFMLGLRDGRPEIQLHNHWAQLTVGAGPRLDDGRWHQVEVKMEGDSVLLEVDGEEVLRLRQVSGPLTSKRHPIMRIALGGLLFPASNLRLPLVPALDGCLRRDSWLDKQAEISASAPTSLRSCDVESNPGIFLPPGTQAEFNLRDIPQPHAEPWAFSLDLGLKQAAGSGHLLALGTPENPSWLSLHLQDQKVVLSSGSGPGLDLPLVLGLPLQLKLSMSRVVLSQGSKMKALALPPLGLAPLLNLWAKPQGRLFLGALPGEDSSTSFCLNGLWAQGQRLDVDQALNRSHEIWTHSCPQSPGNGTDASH", "conditions": "cited from earlier work"}},
  "data": [
    {"compound": "C[C@]12CC[C@@H]3c4ccc(O)cc4CC[C@H]3[C@@H]1[C@@H](O)[C@@H](O)[C@@H]2O", "note": "[E4, estetrol]", "values": [
      {"measurement": "Percentage of hematopoietic stem cells (hCD34+/hCD38−) in the human hematopoietic population", "setting": "human cord blood CD34+", "value": "0.39 +/− 0.08 (n = 3) %"},
      {"measurement": "Percentage of human hematopoietic reconstitution", "setting": "human cord blood CD34+", "value": "40.80 +/− 4.58 (n = 3) %"},
      {"measurement": "toxicity for hematopoietic progenitor subpopulations", "setting": "[1]; 10 nM to 500 μM, in vitro", "value": "less toxic"},
      {"measurement": "% CD34+/CD38−", "setting": "[1]; 10 nM", "value": "13.35 ± 0.87", "unit": "%"},
      {"measurement": "% HSC", "setting": "[1]; 10 nM", "value": "1.75 ± 0.13", "unit": "%"},
      {"measurement": "% MLP", "setting": "[1]; 10 nM", "value": "4.29 ± 0.44", "unit": "%"},
      {"measurement": "% MPP", "setting": "[1]; 10 nM", "value": "4.39 ± 0.25", "unit": "%"},
      {"measurement": "% CD34+/CD38−", "setting": "[1]; 100 nM", "value": "12.60 ± 0.68", "unit": "%"},
      {"measurement": "% HSC", "setting": "[1]; 100 nM", "value": "1.67 ± 0.12", "unit": "%"},
      {"measurement": "% MLP", "setting": "[1]; 100 nM", "value": "4.42 ± 0.16", "unit": "%"},
      {"measurement": "% MPP", "setting": "[1]; 100 nM", "value": "4.35 ± 0.56", "unit": "%"},
      {"measurement": "% CD34+/CD38−", "setting": "[1]; 1 μM", "value": "12.08 ± 1.22", "unit": "%"},
      {"measurement": "% HSC", "setting": "[1]; 1 μM", "value": "1.86 ± 0.20", "unit": "%"},
      {"measurement": "% MLP", "setting": "[1]; 1 μM", "value": "3.48 ± 0.73", "unit": "%"},
      {"measurement": "% MPP", "setting": "[1]; 1 μM", "value": "4.89 ± 0.30", "unit": "%"},
      {"measurement": "% CD34+/CD38−", "setting": "[1]; 10 μM", "value": "13.62 ± 0.54", "unit": "%"},
      {"measurement": "% HSC", "setting": "[1]; 10 μM", "value": "2.03 ± 0.04", "unit": "%"},
      {"measurement": "% MLP", "setting": "[1]; 10 μM", "value": "4.30 ± 0.29", "unit": "%"},
      {"measurement": "% MPP", "setting": "[1]; 10 μM", "value": "4.57 ± 0.35", "unit": "%"},
      {"measurement": "% CD34+/CD38−", "setting": "[1]; 100 μM", "value": "17.26 ± 2.24", "unit": "%"},
      {"measurement": "% HSC", "setting": "[1]; 100 μM", "value": "3.67 ± 0.65", "unit": "%"},
      {"measurement": "% MLP", "setting": "[1]; 100 μM", "value": "5.66 ± 1.49", "unit": "%"},
      {"measurement": "% MPP", "setting": "[1]; 100 μM", "value": "3.85 ± 0.32", "unit": "%"},
      {"measurement": "% CD34+/CD38−", "setting": "[1]; 500 μM", "value": "10.82 ± 2.79", "unit": "%"},
      {"measurement": "% HSC", "setting": "[1]; 500 μM", "value": "3.76 ± 1.25", "unit": "%"},
      {"measurement": "% MLP", "setting": "[1]; 500 μM", "value": "0.89 ± 0.18", "unit": "%"},
      {"measurement": "% MPP", "setting": "[1]; 500 μM", "value": "3.11 ± 1.20", "unit": "%"},
      {"measurement": "affinity for ER relative to β-estradiol", "setting": "ESRα", "value": "less affinity than β-estradiol"},
      {"measurement": "affinity for ESRα versus ESRβ", "setting": "ESRα", "value": "high affinity for ESRα as compared to the ESRβ"},
      {"measurement": "binding by SHBG", "setting": "[2]", "value": "not bound"}
    ]}
  ]
}
